Results published in patent US12552797B2, “Process for making (3-[cyclopropylethoxy(difluoro)methyl]-6-6[5-fluoro-6-(2,2,2-trifluoroethoxy-3-pyridyl]- [1,2,4]triazolo[4,3-a]pyrazine” (Praxis Precision Medicines, Inc., priority 2019, dated 2026).
Converted amounts (≈) assume the structure as drawn.

Tests used:
Format in all cases: physicochemical
[1] = XRPD, NMR and LC-MS of Compound 1 before and after jet milling
Experimental: X-ray powder diffraction (XRPD) data were collected using a Bruker D8 Advance powder diffractometer. The samples were irradiated with copper K-alpha X-rays (λ=1.54179 Å) with the generator operating at 40 kV/40 mA. The samples were scanned in continuous mode from 3° to 40° (2 θ) with a sample rotation speed of 15 rpm and a scanning rate of 10°/min.
Proton NMR (^1H-NMR), Florine NMR (^19F-NMR) and LC-MS analyses were also carried out on Compound 1 before jet milling and after jet milling.

[2] = Stability of suspension formulations in 0.5% MC 400 cP/0.2% Tween 80 (HPLC, PSD)
Experimental: For stability and purity testing of Compound 1 a high-performance liquid chromatography (HPLC) method was developed. The HPLC method used for chemical stability and purity testing was as follows:
To prepare suspension formulations of Compound 1, about 0.5 mg, 5 mg and 10 mg of Compound 1 were weighted into separate vials and 1 mL 0.5% MC 400 cP/0.2% Tween 80 was added to each vial. The materials were mixed together by Vortex and stirred at room temperature overnight (24 hrs). The stability of the suspension formulations was measured by quantifying the purity of Compound 1 using high pressure liquid chromatography (HPLC). […]
To prepare a suspension formulation comprising jet-milled Compound 1, 15 mg of jet-milled Compound 1 was weighed into a glass vial and then 10 mL of vehicle (0.5% MC 400 cP/0.2% Tween 80) was added to disperse it to reach Compound 1 concentration of 1.5 mg/mL. The suspension was thoroughly dispersed by homogenization for ˜30 seconds. The stability of the suspension was evaluated by HPLC and particle size distribution (PSD), and the results are summarized in Table 7. Based on HPLC and PSD, the suspension formulation comprising jet-milled Compound 1 was stable at ambient condition for 28 days.

[3] = Kinetic solubility of amorphous solid dispersions (ASD) in FaSSIF
Experimental: Amorphous solid dispersion including Compound 1 was prepared with a mixture of Compound 1 and polymer. Nine ASD formulations were prepared using for screening 9 different polymers as the solid dispersant (PVPK30, PVPVA64, Soluplus, HPMC E5, HPMC ASMG, HPMC ASMF, HPMC ASHG, Eudragit EPO, Eudragit L100). About 10 mg of Compound 1 and 40 mg of corresponding polymer were weighed into 40-mL glass vials, and dissolved in 1 mL of MeOH/DCM (1:1, v/v) to prepare stock solution. […] The product after evaporation was dried under vacuum at 30° C. overnight and further characterized by appearance, PLM, XRPD and mDSC.
The nine ASD formulations were tested for kinetic solubility in FaSSIF at the concentration of 2 mg/mL. The experiment was run at 37° C. with the rate of 450 rpm. 0.5 mL of the mixture was taken out at each time point and centrifuged before running UPLC (a shortened runtime version of the described HPLC method was used to determine the Compound 1 levels).

[4] = jet milled, 0.5% MC 400 cP/0.2% Tween 80, target 1.5 mg/mL, 1 day
[5] = jet milled, 0.5% MC 400 cP/0.2% Tween 80, target 1.5 mg/mL, 6 days
[6] = jet-milled, 0.5% MC 400 cP/0.2% Tween 80, target 1.5 mg/mL, RT, Initial
[7] = jet-milled, 0.5% MC 400 cP/0.2% Tween 80, target 1.5 mg/mL, RT, day 1
[8] = jet-milled, 0.5% MC 400 cP/0.2% Tween 80, target 1.5 mg/mL, RT, day 2
[9] = jet-milled, 0.5% MC 400 cP/0.2% Tween 80, target 1.5 mg/mL, RT, day 3
[10] = jet-milled, 0.5% MC 400 cP/0.2% Tween 80, target 1.5 mg/mL, RT, day 6
[11] = jet-milled, 0.5% MC 400 cP/0.2% Tween 80, target 1.5 mg/mL, RT, day 7
[12] = jet-milled, 0.5% MC 400 cP/0.2% Tween 80, target 1.5 mg/mL, RT, day 14
[13] = jet-milled, 0.5% MC 400 cP/0.2% Tween 80, target 1.5 mg/mL, RT, day 21
[14] = jet-milled, 0.5% MC 400 cP/0.2% Tween 80, target 1.5 mg/mL, RT, day 28
[15] = un-milled, 0.5% MC 400 cP/0.2% Tween 80, target 0.5 mg/mL, 1 hr
[16] = un-milled, 0.5% MC 400 cP/0.2% Tween 80, target 0.5 mg/mL, 4 hrs
[17] = un-milled, 0.5% MC 400 cP/0.2% Tween 80, target 0.5 mg/mL, 7 days
[18] = un-milled, 0.5% MC 400 cP/0.2% Tween 80, target 5 mg/mL, 4 hrs
[19] = un-milled, 0.5% MC 400 cP/0.2% Tween 80, target 5 mg/mL, 7 days
[20] = un-milled, 0.5% MC 400 cP/0.2% Tween 80, target 10 mg/mL, 1 hr
[21] = un-milled, 0.5% MC 400 cP/0.2% Tween 80, target 10 mg/mL, 4 hrs
[22] = un-milled, 0.5% MC 400 cP/0.2% Tween 80, target 10 mg/mL, 7 days

physical form change (XRPD) ([1]; after jet-milling): no physical form change
appearance of suspensions ([2]; 0.5, 5 and 10 mg/mL in 0.5% MC 400 cP/0.2% Tween 80, room temperature): homogenous suspensions
Concentration [2, 4]: 1440 µg/mL
Purity [2, 4]: 99.4%
Concentration [2, 5]: 1430 µg/mL
Purity [2, 5]: 99.5%
Appearance [2, 6]: Homogeneous
Conc. [2, 6]: 1610 µg/mL
Purity [2, 6]: 99.43%
Appearance [2, 7]: Homogeneous
Conc. [2, 7]: 1440 µg/mL
Purity [2, 7]: 99.44%
Appearance [2, 8]: Homogeneous
Conc. [2, 8]: 1380 µg/mL
Purity [2, 8]: 99.52%
Appearance [2, 9]: Homogeneous
Conc. [2, 9]: 1580 µg/mL
Purity [2, 9]: 99.49%
Appearance [2, 10]: Homogeneous
Conc. [2, 10]: 1430 µg/mL
Purity [2, 10]: 99.51%
Appearance [2, 11]: Homogeneous
Conc. [2, 11]: 1610 µg/mL
Purity [2, 11]: 99.55%
Appearance [2, 12]: Homogeneous
Conc. [2, 12]: 1610 µg/mL
Purity [2, 12]: 99.36%
Appearance [2, 13]: Homogeneous
Conc. [2, 13]: 1560 µg/mL
PSD (D90) [2, 13]: 6.97 um
Purity [2, 13]: 99.58%
Appearance [2, 14]: Homogeneous
Conc. [2, 14]: 1640 µg/mL
PSD (D90) [2, 14]: 6.80 um
Purity [2, 14]: 98.96%
stable at ambient condition (HPLC and PSD) ([2]; suspension of jet-milled Compound 1, 1.5 mg/mL, 0.5% MC 400 cP/0.2% Tween 80): 28 days
Concentration [2, 15]: 580 µg/mL
Purity [2, 15]: 97.46%
Concentration [2, 16]: 450 µg/mL
Purity [2, 16]: 96.65%
Concentration [2, 17]: 490 µg/mL
Purity [2, 17]: 97.85%
Purity ([2]; un-milled, 0.5% MC 400 cP/0.2% Tween 80, target 5 mg/mL, 1 hr): 97.60%
Concentration [2, 18]: 4720 µg/mL
Purity [2, 18]: 97.84%
Concentration [2, 19]: 5060 µg/mL
Purity [2, 19]: 96.95%
Concentration [2, 20]: 9690 µg/mL
Purity [2, 20]: 96.86%
Concentration [2, 21]: 9790 µg/mL
Purity [2, 21]: 97.12%
Concentration [2, 22]: 9720 µg/mL
Purity [2, 22]: 96.71%
solubility kinetic at 15 min ([3]; FaSSIF, thermodynamic from solid, 2 mg/mL, 37° C., 450 rpm, 15 min): 5.7 µg/mL (≈ 14 µM)
solubility kinetic at 30 min ([3]; FaSSIF, thermodynamic from solid, 2 mg/mL, 37° C., 450 rpm, 30 min): 8.1 µg/mL (≈ 19.9 µM)
solubility kinetic at 60 min ([3]; FaSSIF, thermodynamic from solid, 2 mg/mL, 37° C., 450 rpm, 60 min): 7.1 µg/mL (≈ 17.4 µM)
solubility kinetic at 120 min ([3]; FaSSIF, thermodynamic from solid, 2 mg/mL, 37° C., 450 rpm, 120 min): 11.6 µg/mL (≈ 28.5 µM)
Final pH ([3]; kinetic solubility test in FaSSIF): 6.54
Structure (SMILES): CCOC(F)(F)c1nnc2cnc(-c3cnc(OCC(F)(F)F)c(F)c3)cn12 [Compound 1, 3-(ethoxydifluoromethyl)-6-(5-fluoro-6-(2,2,2-trifluoroethoxy)pyridin-3-yl)-[1,2,4]triazolo[4,3-a]pyrazine]
chemical or structural change (NMR, LC-MS) ([1]; due to jet milling): no observed chemical or structural change
